We go through one compound from patent US12678451B2, “Cannabinoid and omega fatty acid compositions and methods of using” (GreenWay Herbal Products, LLC, priority 2019, dated 2026).

The assay deals with cytokines induced in mice by LPS. The assay can be described thus: Mouse LPS cytokine model, Example 6C Study 2, omega fatty acids with or without 0.5 mg/kg 1:1 CBD:CBDA. In kind it is in vivo. As to conditions: 0.5 mg/kg (0.01 mg per mouse). As to the method:
A series of experiments using a mouse LPS cytokine animal model were performed. In the mouse LPS cytokine animal model, mice were injected with LPS, which induced the immune response shortly after the mice were injected with one of the potential anti-inflammatory compounds under evaluation (the “test compound”). The efficacy of the test compound was evaluated based on its ability to reduce expression levels of inflammatory cytokines that were elevated due to the immune response. The test compounds included a cannabinoid, an omega fatty acid, and a cannabinoid-omega fatty acid composition.
The mice were intraperitoneally injected with 0.1 mL of the test compound. One hour later, the mice were intraperitoneally injected with 0.1 mL of LPS in phosphate buffered saline (PBS). Four hours later, a heart puncture was performed and the blood was allowed to clot to generate serum. 0.1 mL of the serum was diluted 1:2 with PBS and stored at −80° C. The serum was then sent to a laboratory where a mouse cytokine array/chemokine array 31-plex (MD31) analysis was performed that analyzed the expression levels of the 32 cytokines/chemokines listed in Table 9, above.
For each considered test compound, the ability of the test compound to suppress each inflammatory cytokine was calculated by determining the percent suppression.
In this study, the effects of combining 1:1 CBD:CBDA with anti-inflammatory omega unsaturated fatty acids using the mouse LPS cytokine animal model were examined.
40 female C57BL/6 mice that weighed approximately 20 g each were allowed to acclimate for one week with unlimited access to food and water. On the day of the study, the mice were weighed and split into ten groups of four mice each so that the average weight of each group was as close as possible to each other. […] (9) LPS plus 37.50 mg omega fatty acids (0.1 mL injection of 375.00 mg/mL omega fatty acids diluted in MCT oil, followed 1 hour later by a 0.1 mL injection of LPS in PBS); and (10) LPS plus 37.50 mg omega fatty acids/0.01 mg 1:1 CBD:CBDA (0.1 mL injection of 375.00 mg/mL omega fatty acids/0.1 mg/mL 1:1 CBD:CBDA diluted in MCT oil, followed 1 hour later by a 0.1 mL injection of LPS in PBS).
Because the purpose of this experiment was to evaluate the effectiveness of combining 1:1 CBD:CBDA and the anti-inflammatory omega fatty acids, only cytokines that could be suppressed by one of the anti-inflammatory agents used in this study were considered.

For `C[C@@H]1C[C@H]2[C@@H]3CCC4=CC(=O)C=C[C@]4(C)[C@@]3(F)[C@@H](O)C[C@]2(C)[C@@]1(O)C(=O)CO` [Dexamethasone, dexamethasone], the “AVERAGE SUPPRESSION” value is listed as 46.54%, the IFNγ suppression is listed as 70.28%, the IL-6 suppression turned out to be 76.63% and the IL-7 suppression was 31.25%. Moreover, the IL-10 suppression turned out to be 24.07%, the “IL-12β p40 suppression” value amounted to 56.90%, the IL-15 suppression is reported as 42.45% and the IL-17 suppression came to 64.04%. The same compound came in with an IP-10 suppression of 44.62%, a KC suppression of 79.04%, an LIF suppression of 51.34% and an MCP-1 suppression of 57.38%. Also, the MIG suppression amounted to 20.57%, the MIP-1α suppression came to 59.54%, the MIP-1β suppression worked out at 27.89% and the RANTES suppression is 46.25%. The same compound had a TNF-α suppression of 61.44%.
